{
  "source": "patent US8716342B2",
  "about": "“Method for preparing molecular complexes between adapalene and cyclodextrins” (Galderma Research & Development, priority 2009, dated 2014)",
  "experiment": "Kinetics of dissolution at 3 g/l and at 25° C. in water (adapalene solubilized, HPLC; pH of the solution at the end)",
  "assay_type": "physicochemical",
  "method": "b) Kinetics of Dissolution at 3 g/l and at 25° C.\nThe chromatographic conditions and the concentrations of the control solutions are the same as those of the assay.\n• Stirring: 15-position bench • Thermostated bath: 25° C. +/−2° C. verified on Prolabo PR 531 probe • HPLC Waters 2690-Detector 2487/2996 • Weighing out: Sartorius A200 balance • Dilutions: Eppendorf Research 1000, Eppendorf Research 5000, Gilson M1000 micropipette • Ultrapure water station: ELGA Operating conditions:\nA test sample equivalent to 150 mg of Adapalene is introduced into a 100 ml Erlenmeyer flask. 50 ml of water are added. The mixture is stirred magnetically at 400 rpm or position 4 in a waterbath at 25° C. +/−2° C. A 2 ml sample is withdrawn at 15, 30, 60, 120 and 1140 minutes, while stirring magnetically. These withdrawn samples are filtered through 0.45 μm Gelman GHP Acrodisc polypropylene filters. The solution must be clear. The withdrawn samples are diluted by a factor “a” in the mobile phase, making it possible to have an Adapalene peak of surface area included between the surface areas of Control 1 and Control 5.\n10 μl of each control solution are injected. A linear regression of the surface areas of the Adapalene peaks relative to the concentrations is performed.\n10 μl of the solution to be examined are injected.\nThe area of the Adapalene peak in each solution to be examined is measured.\nThe concentration X in μg/ml is deduced therefrom according to the regression line of the controls.\nThe concentration in μg of Adapalene solubilized per ml is calculated with the formula: [Adapalene] in μg/ml=X×a\nThe variation in the amount dissolved in μg/ml as a function of time is represented on a graph.\nAt the end of dissolution, the appearance is immediately noted and the pH of the solution immediately measured.",
  "data": [
    {"smiles": "COc1ccc(-c2ccc3cc(C(=O)O)ccc3c2)cc1C12CC3CC(CC(C3)C1)C2", "note": "[Adapalene alone, 6-(3-(1-adamantyl)-4-methoxyphenyl)-2-naphthoic acid]", "values": [
      {"measurement": "pH of dissolution, 15 minutes", "setting": "15 minutes", "value": "(5.7)"},
      {"measurement": "pH of dissolution, 7 days", "setting": "7 days", "value": "(5.7)"},
      {"measurement": "Dissolution, 15 minutes", "setting": "maturation temperature 85° C., 15 minutes", "value": 0, "unit": "µg/mL"},
      {"measurement": "Dissolution, 7 days", "setting": "maturation temperature 85° C., 7 days", "value": 0, "unit": "µg/mL"}
    ]}
  ]
}
